Test results taken from ChEMBL document CHEMBL4334516, “Kinase Chemodiversity from the Arctic: The Breitfussins” (J Med Chem, 2019).

Assays:
[1] = test system: SK-BR-3; assay: Cytotoxicity in human SK-BR-3 cells assessed as reduction in cell viability incubated for 72 hrs by MTS assay; assay type: functional, cell-based; conditions: SK-BR-3, 72 h
[2] = test system: HT-29; assay: Cytotoxicity in human HT-29 cells assessed as reduction in cell viability incubated for 72 hrs by MTS assay; assay type: functional, cell-based; conditions: HT-29, 72 h
[3] = test system: A2058; assay: Cytotoxicity in human A2058 cells assessed as reduction in cell viability incubated for 72 hrs by MTS assay; assay type: functional, cell-based; conditions: A2058, 72 h
[4] = molecular target: T1, Mitogen-activated protein kinase 15 (Homo sapiens, UniProt Q8TD08); assay: Inhibition of ERK8 (unknown origin) by [33P]-ATP filter binding kinase assay
T1 sequence (Q8TD08 whole entry): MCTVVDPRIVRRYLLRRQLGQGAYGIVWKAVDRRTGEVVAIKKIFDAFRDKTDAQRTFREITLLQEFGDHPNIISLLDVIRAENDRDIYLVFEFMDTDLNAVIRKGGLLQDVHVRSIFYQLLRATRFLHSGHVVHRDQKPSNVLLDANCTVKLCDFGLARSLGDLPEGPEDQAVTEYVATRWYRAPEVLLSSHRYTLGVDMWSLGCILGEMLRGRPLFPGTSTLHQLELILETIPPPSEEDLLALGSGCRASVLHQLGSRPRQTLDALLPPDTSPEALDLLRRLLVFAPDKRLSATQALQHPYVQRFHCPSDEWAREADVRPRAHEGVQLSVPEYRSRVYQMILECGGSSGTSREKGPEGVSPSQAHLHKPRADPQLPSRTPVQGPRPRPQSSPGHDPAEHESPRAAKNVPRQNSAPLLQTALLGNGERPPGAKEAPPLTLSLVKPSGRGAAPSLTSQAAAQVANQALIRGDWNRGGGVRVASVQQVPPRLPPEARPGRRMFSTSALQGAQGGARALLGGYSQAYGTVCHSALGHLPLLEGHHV

[5] = molecular target: T2, Mitogen-activated protein kinase kinase kinase 7 (Homo sapiens, UniProt O43318); assay: Inhibition of TAK1 (unknown origin) by [33P]-ATP filter binding kinase assay
T2 sequence (O43318 whole entry): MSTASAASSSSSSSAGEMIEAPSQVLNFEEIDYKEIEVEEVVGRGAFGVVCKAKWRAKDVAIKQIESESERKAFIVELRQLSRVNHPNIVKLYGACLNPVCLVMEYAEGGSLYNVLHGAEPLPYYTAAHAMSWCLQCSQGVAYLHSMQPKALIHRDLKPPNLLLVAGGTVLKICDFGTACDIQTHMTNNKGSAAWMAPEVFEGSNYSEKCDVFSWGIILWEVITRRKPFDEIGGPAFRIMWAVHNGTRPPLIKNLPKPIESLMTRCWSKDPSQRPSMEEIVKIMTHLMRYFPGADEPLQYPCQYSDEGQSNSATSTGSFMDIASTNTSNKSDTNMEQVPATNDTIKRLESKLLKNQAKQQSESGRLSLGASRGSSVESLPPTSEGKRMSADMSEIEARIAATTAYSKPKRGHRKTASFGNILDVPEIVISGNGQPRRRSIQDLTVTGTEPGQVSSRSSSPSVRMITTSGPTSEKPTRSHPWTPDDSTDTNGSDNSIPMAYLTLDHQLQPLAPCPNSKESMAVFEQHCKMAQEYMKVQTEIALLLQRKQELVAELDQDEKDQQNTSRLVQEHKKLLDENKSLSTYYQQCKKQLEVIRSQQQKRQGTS

[6] = molecular target: Mitogen-activated protein kinase kinase kinase 11 (Homo sapiens, UniProt Q16584); assay: Inhibition of MLK3 (unknown origin) by [33P]-ATP filter binding kinase assay
Mitogen-activated protein kinase kinase kinase 11, sequence (Q16584 whole entry): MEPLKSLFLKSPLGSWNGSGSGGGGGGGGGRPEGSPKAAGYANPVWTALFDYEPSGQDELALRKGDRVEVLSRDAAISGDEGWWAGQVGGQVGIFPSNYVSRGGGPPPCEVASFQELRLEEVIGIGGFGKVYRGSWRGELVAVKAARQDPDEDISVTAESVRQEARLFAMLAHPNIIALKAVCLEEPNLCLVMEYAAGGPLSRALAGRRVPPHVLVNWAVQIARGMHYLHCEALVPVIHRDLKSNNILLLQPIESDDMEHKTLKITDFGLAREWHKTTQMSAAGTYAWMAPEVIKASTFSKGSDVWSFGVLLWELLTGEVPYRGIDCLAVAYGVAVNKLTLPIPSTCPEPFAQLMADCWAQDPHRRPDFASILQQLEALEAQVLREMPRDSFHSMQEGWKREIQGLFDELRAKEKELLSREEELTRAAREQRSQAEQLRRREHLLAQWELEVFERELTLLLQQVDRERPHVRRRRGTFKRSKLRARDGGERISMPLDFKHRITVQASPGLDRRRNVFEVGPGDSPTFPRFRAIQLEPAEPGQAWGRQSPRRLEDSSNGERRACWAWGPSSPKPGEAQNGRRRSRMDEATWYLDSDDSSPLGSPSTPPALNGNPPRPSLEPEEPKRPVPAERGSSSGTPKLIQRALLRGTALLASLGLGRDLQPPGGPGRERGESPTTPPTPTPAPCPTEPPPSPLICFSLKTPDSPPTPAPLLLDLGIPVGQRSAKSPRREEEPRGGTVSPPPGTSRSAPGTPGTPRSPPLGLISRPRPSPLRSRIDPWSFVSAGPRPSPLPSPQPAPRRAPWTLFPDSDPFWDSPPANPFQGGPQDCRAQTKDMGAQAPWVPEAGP

[7] = molecular target: T3, Aurora kinase A (Homo sapiens, UniProt O14965); assay: Inhibition of Aurora A (unknown origin) by [33P]-ATP filter binding kinase assay
T3 sequence (O14965 whole entry): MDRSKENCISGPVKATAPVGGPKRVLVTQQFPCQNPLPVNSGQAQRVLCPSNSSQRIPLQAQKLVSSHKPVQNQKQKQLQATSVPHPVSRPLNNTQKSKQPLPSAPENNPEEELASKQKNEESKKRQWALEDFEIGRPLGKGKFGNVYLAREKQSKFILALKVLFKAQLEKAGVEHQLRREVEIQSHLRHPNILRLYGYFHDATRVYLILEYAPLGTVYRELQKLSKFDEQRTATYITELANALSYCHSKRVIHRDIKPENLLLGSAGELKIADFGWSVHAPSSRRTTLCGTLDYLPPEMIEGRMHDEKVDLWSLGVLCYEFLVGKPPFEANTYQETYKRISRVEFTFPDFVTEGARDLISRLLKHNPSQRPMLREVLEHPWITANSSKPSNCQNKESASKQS

[8] = molecular target: T4, Serine/threonine-protein kinase 17A (Homo sapiens, UniProt Q9UEE5); assay: Inhibition of Alexa Fluor 647-labeled ATP competitive kinase tracer binding to GST-tagged DRAK1 (unknown origin) by FRET based cell free ATP-competitive tracer displacement assay
T4 sequence (Q9UEE5 whole entry): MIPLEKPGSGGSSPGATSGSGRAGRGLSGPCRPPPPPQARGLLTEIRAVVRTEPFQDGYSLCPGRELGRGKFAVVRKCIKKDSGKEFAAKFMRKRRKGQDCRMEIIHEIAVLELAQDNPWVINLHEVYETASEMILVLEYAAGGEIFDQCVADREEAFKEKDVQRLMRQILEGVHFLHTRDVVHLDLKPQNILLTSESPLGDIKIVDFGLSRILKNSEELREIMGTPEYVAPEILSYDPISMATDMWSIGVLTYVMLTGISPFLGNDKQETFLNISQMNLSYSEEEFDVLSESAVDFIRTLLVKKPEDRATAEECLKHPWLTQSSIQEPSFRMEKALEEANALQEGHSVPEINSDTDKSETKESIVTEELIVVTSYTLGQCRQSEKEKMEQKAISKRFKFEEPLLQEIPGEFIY

[9] = molecular target: T5, Serine/threonine-protein kinase 17B (Homo sapiens, UniProt O94768); assay: Inhibition of Alexa Fluor 647-labeled ATP competitive kinase tracer binding to GST-tagged DRAK2 (unknown origin) by FRET based cell free ATP-competitive tracer displacement assay
T5 sequence (O94768 whole entry): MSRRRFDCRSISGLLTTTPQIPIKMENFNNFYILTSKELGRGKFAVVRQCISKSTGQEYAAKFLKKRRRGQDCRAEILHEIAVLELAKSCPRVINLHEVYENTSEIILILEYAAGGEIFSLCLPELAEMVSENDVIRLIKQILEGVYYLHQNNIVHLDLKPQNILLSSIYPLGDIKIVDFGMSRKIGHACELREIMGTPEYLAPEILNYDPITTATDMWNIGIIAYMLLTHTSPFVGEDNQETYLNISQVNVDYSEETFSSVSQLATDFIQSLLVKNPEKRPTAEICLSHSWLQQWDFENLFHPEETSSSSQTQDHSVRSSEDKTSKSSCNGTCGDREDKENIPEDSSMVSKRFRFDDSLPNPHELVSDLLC

[10] = molecular target: Serine/threonine-protein kinase pim-3 (Homo sapiens, UniProt Q86V86); assay: Inhibition of PIM3 (unknown origin) assessed as residual enzyme activity at 1 uM by [33P]-ATP filter binding kinase assay relative to control
[11] = Toxicity in zebrafish embryos assessed as induction of heart edema by measuring unaffected embryos level at 14 uM after 72 hrs (reference value: 100%); assay type: tissue-based, Danio rerio; conditions: in vivo

IC50 [5] [µM]	IC50 [6] [µM]	IC50 [7] [µM]	IC50 [8] [µM]	IC50 [9] [µM]	Compound	IC50 [1] [µM]	IC50 [2] [µM]	IC50 [3] [µM]	IC50 [4] [µM]	Activity [10] [%]	Activity [11] [%]
> 10	> 10	> 10	> 10	> 10	COc1cc(Br)cc2[nH]cc(-c3oc(-c4ccc[nH]4)nc3I)c12	> 10	> 10	> 10	> 10	–	–
> 10	> 10	> 10	> 10	> 10	COc1cc(Br)cc2[nH]cc(-c3cnc(-c4ccc(Br)[nH]4)o3)c12	> 10	> 10	> 10	> 10	–	–
1	0.5	> 10	9.6	> 10	COc1cc(Br)cc2[nH]cc(-c3cnc(-c4ccc[nH]4)o3)c12	> 10	> 10	> 10	46	29	–

Compound	IC50 [5] [µM]	IC50 [6] [µM]	IC50 [7] [µM]	IC50 [8] [µM]	IC50 [9] [µM]	IC50 [1] [µM]	IC50 [2] [µM]	IC50 [3] [µM]	IC50 [4] [µM]	Activity [10] [%]	Activity [11] [%]
COc1cc2c(-c3cnc(-c4ccc[nH]4)o3)c[nH]c2cc1Br	1.2	0.6	22	–	9.8	> 10	7.1	> 10	1	7	100
